Read-outs that look alike come from different tables or passages of the source.
Tests used:
A549 = assay: Growth inhibition in NSCLC comparison line (selectivity and multidrug resistance studies); type: cell-based, human; conditions: maximum 25 μM, read-out: IC50 NSCLC A-549 (sensitive)
Procedure: (§1) This assessment of the growth inhibitory activity of the compounds was tested in quadruplicate at a maximum concentration of 25 μM, followed by 10 serially diluted concentrations.
Compound 7e was analyzed for cancer cell growth inhibitory activity in a sensitive NSCLC cell line (A549) and a multidrug resistant lung cancer cell line (NCI-H69AR) which expresses the ABCC1 efflux pump protein. This assessment of activity tested compounds in quadruplicate at a maximum concentration of 25 μM, followed by 10 serially diluted concentrations.
A549, IEC-6, MCF-10A and 3t3 cells were harvested from 90-95% confluent cultures in 10 cm dishes, and diluted in growth media recommended by the suppliers as follows: A549 cells were cultured in RPMI-1640 medium supplemented with 5% fetal bovine serum (FBS). IEC-6 cells were obtained from ATCC and cultured in Dulbecco’s modified Eagle’s medium (DMEM) supplemented with 10% FBS and 0.1 unit/mL recombinant insulin. Swiss 3t3 cells were obtained from ATCC and cultured in DMEM supplemented with 10% FBS. MCF-10Acells were obtained from ATCC and cultured in a mixture DMEM and F12 media supplemented with 5% fetal bovine serum (FBS), 20 ng/mL recombinant epidermal growth factor, 10 µg/mL insulin, 0.5 µg/mL hydrocortisone and 100 ng/mL cholera toxin. An appropriate concentration of cells was prepared to add 1,250 cells in a volume of 25 µL per well in tissue culture treated BD 384-well microplates, then incubated overnight at 37 °C.
Compound 7e and the positive control, sunitinib, were diluted to a concentration of […] in DMSO. Concentrated dosing solutions (double the final concentration) were prepared by dilution of the DMSO stocks 1:500 in growth medium. Two-fold serial dilutions were then prepared in medium containing 0.2% DMSO to maintain a constant concentration of vehicle throughout the concentration range of the compound. Each of these was added in equal volume (25 µL) to four wells on each cell assay plate, along with vehicle control. The highest concentration for serial dilutions of the positive control sunitinib was prepared exactly as the experimental compounds. […]
At the end of the treatment period, assay plates were allowed to cool to RT for 10 min prior to addition of 25 µL per well Promega CellTiterGlo reagent, followed by an additional 10 min incubation at RT. The resulting luminescence was quantitated using a Molecular Devices Spectramax Paradigm.Percent growth inhibition was calculated using equation (1). The potency of compounds was determined using the non-linear dose response algorithm (four-parameter logistic fit) with GraphPad Prism 5 software. […]
Compound 7e was diluted to a concentration of 25 µM in DMSO. […] The resulting luminescence was quantitated using a Molecular Devices Spectramax Paradigm. […]

[1] = test system: phosphorylated tyrosine (p-Tyr) in A549 cells; assay: Total cellular tyrosine phosphorylation after serum stimulation (immunofluorescent imaging); type: cell-based, human; conditions: for Change in p-Tyr levels: A549, serum stimulated; for IC50: A549, 10 min 10% fetal bovine serum, apparent IC50 of an increase for 7e, of a decrease for sunitinib, read-out: IC50 for change in total tyrosine phosphorylation (p-Tyr) levels
Procedure: Furthermore, compound 7e was analyzed for its effect on total cellular levels of phosphorylated tyrosine (p-Tyr) residues in human cancer cells. These studies were carried out using cells derived from lung adenocarcinoma (A549) and immunofluorescent imaging. The ability of the test compound 7e to affect acute serum stimulation of tyrosine phosphorylation was tested over a range of concentrations from less than 100 nM to 50 μM.
Cells were stimulated for 10 min with 10% fetal bovine serum. Phosphotyrosine levels were determined by indirect immunofluorescence followed by automated image acquisition and analysis.

[2] = test system: IEC-6, MCF-10A, Swiss 3t3 versus A-549; assay: Tumor cell selectivity, non-tumor cell lines versus NSCLC cells; type: cell-based; conditions: for Mean tumor selectivity: mean IC50 in non-tumor cell lines versus NSCLC cells
Procedure: as §1
As indicated in Fig 7 and Table 4, compound 7e inhibited growth in both normal and tumor cell lines >50%.

Swiss 3t3 fibroblasts = assay: Selectivity: growth inhibition in non-tumorigenic cell line; type: cell-based, mice; conditions: Mus musculus, 72 h, maximum 25 μM, read-out: IC50 Fibroblast Swiss 3t3
Procedure: as §1
A549, IEC-6, MCF-10A and 3t3 cells were harvested from 90-95% confluent cultures in 10 cm dishes, and diluted in growth media recommended by the suppliers as follows: A549 cells were cultured in RPMI-1640 medium supplemented with 5% fetal bovine serum (FBS). IEC-6 cells were obtained from ATCC and cultured in Dulbecco’s modified Eagle’s medium (DMEM) supplemented with 10% FBS and 0.1 unit/mL recombinant insulin. Swiss 3t3 cells were obtained from ATCC and cultured in DMEM supplemented with 10% FBS. […]
At the end of the treatment period, assay plates were allowed to cool to RT for 10 min prior to addition of 25 µL per well Promega CellTiterGlo reagent, followed by an additional 10 min incubation at RT. The resulting luminescence was quantitated using a Molecular Devices Spectramax Paradigm.Percent growth inhibition was calculated using equation (1). The potency of compounds was determined using the non-linear dose response algorithm (four-parameter logistic fit) with GraphPad Prism 5 software.

Row | SMILES | IC50 (A549; 72 h) | IC50 (A549; Homo sapiens, A549, 72 h) | Change in p-Tyr levels [1] | IC50 ([1]; Homo sapiens, A549, 10 min) | Mean tumor selectivity [2] | Growth inhibition in both normal and tumor cell lines ([2]; up to 25 μM) | IC50 (Swiss 3t3 fibroblasts) | IC50 [1]
1 | O=C1Nc2ccc(Br)cc2C1=NN=C1C(=O)N(Cc2ccccc2)c2ccccc21 [Compound 7e, 1-Benzyl-3-((5-bromo-2-oxoindolin-3-ylidene)hydrazono)indolin-2-one] | 1600 nM | 1560 nM | nearly two-fold | 3800 nM | 1.7 | > 50% | 2560 nM | 
2 | CCN(CC)CCNC(=O)c1c(C)[nH]c(/C=C2\C(=O)Nc3ccc(F)cc32)c1C [Sunitinib, sunitinib, reference compound] | 3100 nM | 3060 nM | modest dose-dependent decrease | 900 nM | 1.4 |  | 4070 nM | 910 nM

— publication PMC5526551, “New hydrazonoindolin-2-ones: Synthesis, exploration of the possible anti-proliferative mechanism of action and encapsulation into PLGA microspheres” (PLoS ONE, 2017)
